Results as given in a compilation of properties of binary mixtures (doi:10.1021/acs.jced.0c00728).

Experiment: xn = mol fraction of the nth substance listed
Details: 100 kPa

CC[n+]1ccn(C)c1.F[B-](F)(F)F + CCC(=O)O
x1 = 1
Details | speed of sound [m/s]
303.15 K | 1618
313.15 K | 1595
333.15 K | 1550

CCC(=O)O + CC[n+]1ccn(C)c1.F[B-](F)(F)F
speed of sound [m/s]
Details | 293.15 K | 303.15 K | 313.15 K | 323.15 K | 333.15 K
x2 = 0 | 1171 | 1134 | – | 1060 | 1025
x2 = 0.0497 | 1173 | 1145 | 1111 | 1080 | 1054
x2 = 0.0888 | 1213 | 1187 | 1160 | 1130 | 1105
x2 = 0.1876 | – | 1332 | 1313 | 1291 | 1270
x2 = 0.2982 | 1463 | 1442 | – | 1396 | 1376
x2 = 0.3836 | 1496 | – | 1456 | – | 1415
x2 = 0.4908 | – | 1500 | – | 1457 | –
x2 = 0.5907 | – | 1521 | 1496 | – | 1463
x2 = 0.6891 | – | 1548 | 1524 | 1501 | 1480
x2 = 0.78 | 1593 | 1572 | 1549 | 1525 | 1506
x2 = 0.8899 | 1617 | 1593 | 1571 | – | 1525
x2 = 0.9453 | 1629 | 1607 | 1584 | – | –
